For test [1], the system named is mutant desmoglein-2 (Dsg2) knock-in mice. Nature of the test: Mouse model of AC: mutant desmoglein-2 (Dsg2) knock-in. The format is in vivo. To be noted: daily injections for 13 weeks. The procedure:
2 different mouse models of AC were studied: a transgenic line with cardiac myocyte-specific expression of 2057del2 plakoglobin (Plk) and a mutant desmoglein-2 (Dsg2) knock-in model. ECG telemetry and echocardiographic analyses were performed in mutant and wildtype mice treated with daily injections of SB216763 or vehicle for 6 (2057del2 Plk) or 13 (Dsg2) weeks. Hearts excised at selected time points were analyzed for histology, apoptosis and distribution of key intercalated disk proteins.

Test [2] deals with zebrafish ventricular myocytes expressing 2057del2 plakoglobin. Nature of the test: Action potentials by current clamp in isolated zebrafish ventricular myocytes. The format is cell-based, zebrafish (Danio rerio).
Excerpt: (§1) Zebrafish ventricular myocyte isolation and culture: Zebrafish (Danio rerio) were bred and maintained at 28′C with 14 hr exposure to light and 10 hr to dark (day/night cycle) according to IACUC-approved protocols. Hearts were extracted from anesthetized fish at 21-56 days post-fertilization(dpf) using micro-dissecting tweezers (Roboz Surgical Instruments), washed vigorously in culture medium (M199, primocin, HEPES, L-glutamine, 10% fetal bovine serum) and placed in fresh medium. Ventricles were separated at the atrio-ventricular junction, pooled in a tube containing enzyme solution (HBSS without calcium/magnesium, Trypsin, PCN/Streptomycin, HEPES) at 37° C. and agitated in a thermomixer at 1000-1200 RPM. Dissociated cells were collected every 10 min from supernatants and transferred to tubes containing culture medium and 10% fetal bovine srum to halt trypsinization. Cells were then pelleted by centrifugation, resuspended in fresh culture medium, and seeded on sterile cover slips coated with laminin (20 μg/ml)^11 at 28° C. in a 5% CO2 incubator. After 36 hr, culture medium was changed and unattached cells were removed.
After opening the gigaseal, the microelectrode amplifier (HEKA, EP-10, Lambrecht, Germany) was set to zero holding current and cells were stimulated at a frequency of 0.5 to 1 Hz. Recordings were corrected for a junction potential of 12 mV.^12,13
as §1, with “culture:” for “culture: Zebrafish (Danio rerio) were bred and maintained at 28′C with 14 hr exposure to light and 10 hr to dark (day/night cycle) according to IACUC-approved protocols.”, “3-4 or 5-7 weeks post-fertilization” for “21-56 days post-fertilization(dpf)”, “(calcium/magnesium free-HBSS containing trypsin, penicillin/streptomycin,” for “(HBSS without calcium/magnesium, Trypsin, PCN/Streptomycin,”, “serum” for “srum”, “μg/ml)” for “μg/ml)^11”, “28.5°” for “28°”
Cellular electrophysiology methods: Current clamp experiments in isolated neonatal rat and zebrafish ventricular myocytes were carried out using standard protocols (31). […] After opening the gigaseal, the microelectrode amplifier (HEKA, EP-10, Lambrecht, Germany) was set to zero holding current and cells were stimulated at a frequency of 0.5 to 1 Hz. Recordings were corrected for a junction potential of 12 mV (32,33). The chemical composition of the external and pipette solutions is described in supplemental material.

Test [3] relates to neonatal rat ventricular myocytes expressing 2057del2 plakoglobin. Nature of the test: Cytokine expression in conditioned culture media. To be noted: transfected cells. The class given is cell-based. The protocol:
Cytokine expression: Conditioned culture media (after 24 or 48 hr) from control cells and cells expressing 2057del2-plakoglobin in the presence or absence of SB216763 (5 μM, 24 hr) were collected, mixed with a cocktail of biotinylated detection antibodies and incubated with nitro-cellulose membranes spotted in duplicate with control and capture antibodies (R&D Systems). Chemiluminescent signal produced at each spot corresponded to the amount of cytokine bound. Conditioned media from control, un-transfected cultures were assayed for cytokine expression for control purposes.
Cytokine expression: Conditioned culture media (after 24 or 48 hr) from cells expressing 2057del2 plakoglobin in the presence or absence of SB216763 (5 μM, 24 hr) were collected, mixed with a cocktail of biotinylated detection antibodies and incubated with nitro-cellulose membranes spotted in duplicate with control and capture antibodies (R&D Systems). Chemiluminescent signal produced at each spot corresponded to the amount of cytokine bound. Conditioned media from non-transfected cultures were assayed for cytokine expression as controls.

Setting [4] is: 3-4 weeks post-fertilization, 2057del2 plakoglobin + SB2.
The mark [5] stands for this setting: 3-4 weeks post-fertilization, Control + SB2.
Where [6] appears, read: 5-7 weeks post-fertilization, 2057del2 plakoglobin + SB2, embryos treated at 1 dpf for 6 days (3.0 μM).
Where [7] appears, read: 5-7 weeks post-fertilization, Control + SB2, embryos treated at 1 dpf for 6 days (3.0 μM).
Where [8] appears, read: embryos treated at 1 dpf for 6 days, myocytes studied at 5-7 weeks.

SMILES strings stand for the structures. “Also recorded” adds a separate entry of the source.

Data on one compound can be found in patent publication US20160051514A1, “METHODS FOR TREATMENT OF CARDIOMYOPATHY” (THE BRIGHAM AND WOMEN'S HOSPITAL, INC., priority 2013, published 2016).

Turning to `Cn1cc(C2=C(c3ccc(Cl)cc3Cl)C(=O)NC2=O)c2ccccc21` [SB216763], in test [1], the QRS duration was 17.1 ± 2.7 ms; the “Redistribution of junctional signals for Plk, Cx43 and SAP97, and myocardial apoptosis” value is given as “normalized”. Moreover, in test [1] (echocardiography), the “Ejection fraction (EF)” value came to 73.9±6.9% and the “Fractional shortening (FS)” value was determined as 50.2±6.6%. Also, in test [2] (setting [4]), the Action potential duration came to 175 ms, the Maximal upstroke velocity is reported as 22 V/s and the Resting membrane potential is reported as −75 mV. Further, in test [2] (setting [5]), the Action potential duration is 173 ms, the Maximal upstroke velocity is given as 35 V/s and the Resting membrane potential is on record as −79 mV. In addition, in test [2] (setting [6]), the Action potential duration is listed as 154 ms, the Maximal upstroke velocity was found to be 66 V/s and the Resting membrane potential is on record as −78 mV. Further, in test [2] (setting [7]), the Action potential duration worked out at 195 ms, the Maximal upstroke velocity was determined as 53 V/s and the Resting membrane potential is reported as −77 mV. Further, in test [2] (setting [8]), the “Effect on APD80% in fish expressing mutant plakoglobin” value is reported as “shortened APD8O% beyond control levels; also recorded: shortened APD80% beyond control levels”; the “Effect on RMP and dV/dtmax in fish expressing mutant plakoglobin” value is “normalized RMP and dV/dtmax”; the “Effect on action potentials in myocytes from control fish” value is listed as “had no effect on action potentials; also recorded: did not affect action potentials”. Moreover, the “Effect on action potential remodeling, short-term exposure of isolated cells” value in test [2] (isolated myocytes from transgenic fish treated in culture for 36 hr) is on record as “normalized action potential remodeling”. In addition, the “Cytokine levels in culture medium, 48 hr exposure” value in test [3] (5 μM, 48 hr) is “clear reduction in cytokine levels; also recorded: restored the cytokine profile to control levels”. Besides, the “Cytokine profile in culture medium, 24 hr exposure” value in test [3] (24 hr) is reported as “no apparent effect on cytokines; also recorded: had no apparent effect on the cytokine profile”.
